Test results: PMC7884786 (Translational Psychiatry, 2021)
“Also recorded” adds a separate entry of the source. Read-outs that look alike come from different tables or passages of the source.

How the values were obtained:
[1] = test system: glucose-stimulated insulin secretion (GSIS) from β-cells in human islets; assay: Islet secretion assay: insulin secretion from human islets; type: cell-based; conditions: for increase in GSIS compared to vehicle / effect on glucose-stimulated insulin secretion: 1 µM; for effect on glucose-stimulated insulin secretion: relative to vehicle; for IC50: read-out: IC50, reduction of insulin secretion (GSIS)
Method: (§1) Islets were freshly isolated via collagenase digestion of pancreata as described previously. Human pancreatic islets were isolated via collagenase digestion and purified from four non-diabetic human donors (Supplementary Table S1) as described previously. Following isolation and purification, human or mouse islets were plated at a density of 15 islets per well into 24-well tissue culture-treated plates. […] The islets were used immediately after overnight recovery for hormone secretion assays.
(§2) Measurements of hormone secretion were performed using static incubation of pancreatic islets. […] Islets were then transferred to a 24-well plate containing KRB buffer also supplemented with 25 mM glucose. Drug treatments were added in KRB (25 mM glucose) (1 hr, 37 °C, 5% CO2). After treatment, KRB was supplemented with a protease inhibitor cocktail (1 tablet/10 mL KRB; Roche Diagnostics, Mannheim, Germany) to prevent glucagon degradation. Supernatants were collected and placed on ice to further prevent glucagon degradation and precipitation. Undiluted supernatants and 1:2 dilutions were used for the glucagon detection assay, while 1:10 dilutions were used for insulin measurement; all dilutions were in KRB.

[2] = test system: α-cell glucagon secretion in human islets; assay: Islet secretion assay: glucagon secretion from human islets; type: cell-based; conditions: for increase in glucagon secretion compared to vehicle / effect on α-cell glucagon secretion: 1 µM; for effect on α-cell glucagon secretion: relative to vehicle; for effect on glucagon secretion: increasing concentrations, relative to vehicle control
Method: as §1, with “For mouse pancreatic islet preparations, islets were obtained from 8 to 10-week-old wild-type BALB/c mice. Islets” for “Islets”
(§3) Measurements of hormone secretion were performed using static incubation of pancreatic islets. […] The increased glucose (25 mM) was used to inhibit α-cell glucagon secretion to diminish glucagon levels to basal levels to improve the dynamic range of the assay and thus effectively unmask the role of ligand-mediated glucagon secretion as described earlier. Islets were then transferred to a 24-well plate containing KRB buffer also supplemented with 25 mM glucose. Drug treatments were added in KRB (25 mM glucose) (1 hr, 37 °C, 5% CO2). After treatment, KRB was supplemented with a protease inhibitor cocktail (1 tablet/10 mL KRB; Roche Diagnostics, Mannheim, Germany) to prevent glucagon degradation. Supernatants were collected and placed on ice to further prevent glucagon degradation and precipitation. Undiluted supernatants and 1:2 dilutions were used for the glucagon detection assay, while 1:10 dilutions were used for insulin measurement; all dilutions were in KRB.

[3] = test system: α2A-adrenergic receptor KO INS-1E cells; assay: cells; conditions: Rattus norvegicus, read-out: IC50, inhibition of GSIS
Excerpt: (§5) We employed a CRISPR-Cas9-mediated approach to delete endogenous α2A-adrenergic receptor expression in INS-1E cells. Since INS-1E cells are rat-derived, we used the mRNA sequence encoding rat α2A-adrenergic receptor as a template to generate guide RNA (gRNA) to disrupt the promoter region of the Adra2a gene (gRNA sequence: 5′-[sequence]-3′, positions 57–76). We then generated a construct containing the Adra2a gRNA sequence along with cDNA sequences encoding Cas9 and GFP (pENTR-Adra2a-sgRNA-Cas9-GFP). 1–5 μg of the construct was subsequently transfected into low-passage INS-1E cells using Lipofectamine 3000 (ThermoFisher Scientific) according to manufacturer instructions. 24–48 h post-transfection, the transfected cells were identified and collected by fluorescence-activated cell sorting based on GFP fluorescence using a BD FACSAria II sorter (BD Biosciences, San Jose, CA) equipped with a GFP filter (530/30 nm).
(§6) Insulin secretion assays in INS-1E cells were conducted as described earlier[7],[42]. […] Insulin secretion was carried out 48 h after seeding the cells. On an experimental day, cells were first glucose-starved in KRB (0 mM glucose) for 1 h (37 °C, 5% CO2), followed by glucose stimulation with KRB supplemented with 20 mM glucose in the presence or absence of drugs for 90 min (37 °C, 5% CO2). The supernatants were collected and diluted 1:10 in KRB for the insulin detection assay.
(§7) The assay is based on homogeneous time-resolved fluorescence resonance energy transfer (HTRF) technology. Standard curve and assay samples (10 μL/well) were plated into a 384-well white, low-volume, round-bottom plate (Corning, Corning, NY). […] Secreted insulin was similarly detected and measured by an HTRF approach using the insulin high range detection kit (Cisbio Bioassays) as described previously[42]. The two anti-insulin antibodies were mixed in a 1:2 donor (cryptate)/acceptor (XL665) ratio in the insulin assay detection buffer (Cisbio Bioassays) and 15 µL of the insulin antibody mix was added per well. For both glucagon and insulin HTRF assays, the incubation time was 2 h at room temperature. […] The raw data were obtained in ng/mL insulin secreted and pg/mL glucagon secreted. Dose-response curves were fit via non-linear regression of Log[ligand] versus normalized % glucagon or insulin secretion. Investigators were blinded to the identity of samples during the initial analysis.

parental INS-1E cells = assay: Glucose-stimulated insulin secretion (GSIS) in parental INS-1E cells; type: cell-based; conditions: Rattus norvegicus, 1.5 h, read-out: IC50, inhibition of GSIS
[4] = test system: α-cell glucagon secretion from mouse islets; assay: Islet secretion assay: glucagon secretion from mouse islets; type: cell-based; conditions: for EC50: read-out: EC50, increase in secreted glucagon
Method: as §1, with “For mouse pancreatic islet preparations, islets were obtained from 8 to 10-week-old wild-type BALB/c mice. Islets” for “Islets”
as §3

[5] = test system: glucose-stimulated insulin secretion (GSIS) from β-cells in mouse islets; assay: Islet secretion assay: insulin secretion from mouse islets; type: cell-based
Method: as §1, §2

α2A-adrenergic receptor = α2A-adrenergic receptor (Rattus norvegicus, UniProt P22909); assay: NanoBRET Gαi1 recruitment to α2A-adrenergic receptor; type: cell-based
Sequence of α2A-adrenergic receptor (P63096 2-354 partner limits assumed, one chain of several): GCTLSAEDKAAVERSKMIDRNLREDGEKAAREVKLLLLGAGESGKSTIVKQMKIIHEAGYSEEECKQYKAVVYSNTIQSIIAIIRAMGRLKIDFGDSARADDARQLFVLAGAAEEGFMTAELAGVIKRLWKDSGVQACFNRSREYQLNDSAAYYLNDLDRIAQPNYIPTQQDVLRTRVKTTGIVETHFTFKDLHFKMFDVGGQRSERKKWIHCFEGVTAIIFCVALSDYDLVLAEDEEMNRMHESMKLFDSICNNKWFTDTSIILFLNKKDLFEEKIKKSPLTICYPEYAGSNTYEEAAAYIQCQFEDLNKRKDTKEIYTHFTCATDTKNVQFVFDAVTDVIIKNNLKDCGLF
Excerpt: For nanoBRET experiments, we used receptor constructs consisting of either human D2R (DRD2) and rat α2A-adrenergic receptor (Adra2a) cDNAs fused to HaloTag at the C-terminus (α2A-AR-HaloTag and D2R-HaloTag). Both receptors were also tagged at the N terminus with an IL6 signal sequence followed by a HiBiT tag. […] All constructs were cloned into a pcDNA3.1(+) vector backbone (ThermoFisher Scientific) and confirmed by sequencing analysis.
For NanoLuc-only controls, empty pcDNA3.1(+) vector was used to maintain a constant amount of total transfected DNA.
Cells were harvested, washed, and resuspended in fresh medium 24 h post-transfection. Approximately 5 × 10^4 cells/well were distributed in pre-coated 96-well plates and allowed to adhere overnight (37 °C, 5% CO2). […] Following labeling, cells were washed once with HBSS, and 5 μM furimazine (substrate for NanoLuc) was added to every well. Drugs were then added to the samples and incubated for […]. Plates were read 5 min following drug addition using a PheraStar FSX equipped with a nanoBRET-compatible optic module (LUM 610 450) (BMG Labtech). […] EC50 values were calculated via a non-linear regression analysis via GraphPad software.

[6] = biological target: T1, endogenous α2A-adrenergic receptors in INS-1E cells (Rattus norvegicus, UniProt P22909); assay: [3H]RX821002 radioligand binding, INS-1E cell membranes; conditions: for Bmax, saturation binding / Kd: parental INS-1E cell membranes; for Kd: read-out: KD, saturation binding
T1 construct: adherent INS-1E cells expressing the endogenous α2A-adrenergic receptors; endogenous in cells; host or cells: INS-1E (rat insulinoma) cell membranes
T1 sequence (P22909 1-465): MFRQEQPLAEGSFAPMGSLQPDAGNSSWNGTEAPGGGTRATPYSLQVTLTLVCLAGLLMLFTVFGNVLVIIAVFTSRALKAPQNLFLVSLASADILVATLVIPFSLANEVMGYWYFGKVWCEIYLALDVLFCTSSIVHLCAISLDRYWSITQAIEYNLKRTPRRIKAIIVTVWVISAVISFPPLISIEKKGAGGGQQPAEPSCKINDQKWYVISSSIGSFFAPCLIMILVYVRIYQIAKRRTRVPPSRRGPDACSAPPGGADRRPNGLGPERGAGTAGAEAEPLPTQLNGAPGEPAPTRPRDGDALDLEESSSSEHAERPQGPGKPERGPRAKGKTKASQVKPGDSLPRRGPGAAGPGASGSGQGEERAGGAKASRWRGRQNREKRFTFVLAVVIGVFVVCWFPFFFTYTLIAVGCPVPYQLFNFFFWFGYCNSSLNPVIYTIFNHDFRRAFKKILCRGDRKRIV
Method: (§4) Radioligand binding and competition assays were conducted as previously described. Briefly, adherent INS-1E cells expressing the endogenous α2A-adrenergic receptors or transfected HEK-293 cells overexpressing human α2A-adrenergic receptor were dissociated from plates, and intact cells collected by centrifugation (600–900 g, 5–10 min, 4 °C). Cells were resuspended and lysed using 5 mM Tris-HCl and 5 mM MgCl2 (pH 7.4, 4 °C). Cell lysates were pelleted by centrifugation at 30,000 × g for 30 min and resuspended in Earle’s Balanced Salt Solution with Ca^2+ (pH 7.4). For saturation binding assays, cell lysates (100 µL, 2–5 μg of protein for HEK-293 cells and 10–20 μg of protein for INS-1E cells, quantified by the Bradford Assay) were incubated with the indicated concentrations of [^3H]RX821002 (90 min, room temperature). […] The bound ligand was separated from free ligand by filtration through a Perkin Elmer Unifilter-96 GF/C 96-well microplate using the Perkin Elmer Unifilter-96 Harvester (Perkin Elmer, Waltham, MA), followed by three washes with ice-cold assay buffer. After drying, a liquid scintillation cocktail (MicroScint PS; Perkin Elmer) was added to each well, and plates were sealed and analyzed on a Topcount NXT liquid scintillation counter (Perkin Elmer). Ki values were calculated from observed IC50 values using the Cheng–Prusoff equation[47].

αTC1–6 cells = assay: Catecholamine secretion assay with HPLC measurement; type: cell-based, mouse
Method: Cell-based catecholamine secretion assays were conducted as reported earlier[7]. Briefly, αTC1–6 cells were seeded into 24-well plates at an initial seeding density of 5 × 10^5 cells/well in complete DMEM medium. […] Some samples were also supplemented with 10 μM L-DOPA to boost cell catecholamine production in the presence or absence of a monoamine oxidase inhibitor cocktail (10 μM: deprenyl, pargyline, clorgyline). […] Lysates were collected and centrifuged at 17,000 rpm for 5 min at 4 °C to pellet cell debris and then added into HEGA buffer for High-Performance Liquid Chromatography (HPLC) analysis.
Assay samples were filtered (0.20 μm filter; ThermoFisher Scientific) and analyzed via HPLC with electrochemical detection as previously reported[7]. Briefly, samples were separated on a C18 reverse-phase column (Hypersil ODS C18 column, ThermoFisher Scientific) with MD-TM mobile phase (ThermoFisher Scientific).

[7] = biological target: T2, human α2A-adrenergic receptor (Homo sapiens, UniProt P08913); assay: [3H]RX821002 radioligand binding, HEK-293 cells overexpressing α2A-adrenergic receptor; conditions: membranes from HEK-293 cells overexpressing human α2A-adrenergic receptor
T2 construct: expressed in transfected cells; host or cells: HEK-293 (ATCC CRL-1573), transient transfection
T2 sequence (P08913 1-465): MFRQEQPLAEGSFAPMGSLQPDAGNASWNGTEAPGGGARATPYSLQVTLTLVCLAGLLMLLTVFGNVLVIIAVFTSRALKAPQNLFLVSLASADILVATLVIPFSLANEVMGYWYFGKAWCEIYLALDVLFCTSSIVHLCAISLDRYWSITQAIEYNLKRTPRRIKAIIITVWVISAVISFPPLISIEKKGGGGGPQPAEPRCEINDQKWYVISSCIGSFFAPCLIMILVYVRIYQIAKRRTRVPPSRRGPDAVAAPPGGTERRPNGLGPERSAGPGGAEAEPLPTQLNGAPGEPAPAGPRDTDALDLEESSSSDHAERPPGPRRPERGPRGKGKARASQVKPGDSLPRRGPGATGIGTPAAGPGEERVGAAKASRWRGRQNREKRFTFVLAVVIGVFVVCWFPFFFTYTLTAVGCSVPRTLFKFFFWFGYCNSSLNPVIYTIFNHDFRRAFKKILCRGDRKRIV
Method: as §4

[8] = test system: membranes from α2A-adrenergic receptor KO INS-1E cells; assay: [3H]RX821002 saturation binding, α2A-adrenergic receptor KO INS-1E cell membranes; design: species or system rat
Method: as §4

[9] = test system: α2A-adrenergic receptor KO INS-1E cells; conditions: α2A-adrenergic receptor KO INS-1E cells compared to parental
Excerpt: as §5, §6, §7

[10] = parental INS-1E cells, 20 mM glucose, 90 min
[11] = 10 μM L-DOPA supplementation, compared to untreated cells

Structure (SMILES): Cc1cc2c(s1)Nc1ccccc1N=C2N1CCN(C)CC1 [olanzapine]
- increase in GSIS compared to vehicle ([1]; human islets): 43.6 ± 3.1%
- effect on glucose-stimulated insulin secretion ([1]; human islets): raised glucose-stimulated insulin secretion
- increase in glucagon secretion compared to vehicle [2]: 105.7 ± 23.4%
- effect on α-cell glucagon secretion [2]: significantly raised α-cell glucagon secretion

Structure (SMILES): NC[C@H](O)c1ccc(O)c(O)c1 [NE, norepinephrine]
- IC50 [3]: 1400 ± 2 nM
- IC50 ([1]; Homo sapiens, human islets): 787.2 ± 1.3 nM
- IC50 ([1]; human islets): 787 ± 1.3 nM
- IC50 (parental INS-1E cells; [10]): 39.8 ± 1.5 nM
- EC50 ([4]; Mus musculus, 1 h, mouse islets, 25 mM glucose, 1 hr): 142 ± 2.3 nM
- EC50 ([4]; mouse islets, 25 mM glucose, 1 hr): 142 ± 2.3 nM
- IC50 ([5]; Mus musculus, mouse islets, read-out: IC50, reduction of insulin secretion (GSIS)): 178 ± 2.4 nM
- IC50 ([5]; mouse islets, read-out: IC50, reduction of insulin secretion (GSIS)): 179 ± 2.4 nM
- effect on glucagon secretion [2]: significantly enhance glucagon secretion; also recorded: significantly increased α-cell glucagon secretion

Structure (SMILES): NCCc1ccc(O)c(O)c1 [DA, Dopamine]
- IC50 [3]: 474 ± 2.5 nM
- IC50 ([1]; Homo sapiens): 26.2 ± 2.9 nM
- IC50 (parental INS-1E cells; INS-1E): 1500 ± 2 nM
- EC50 (α2A-adrenergic receptor): 2100 ± 2 nM
- EC50 ([4]; Mus musculus, 1 h): 14.9 ± 3.8 nM
- IC50 ([5]; Mus musculus, read-out: IC50, reduction of insulin secretion (GSIS), mouse islets): 1290 ± 2 nM
- IC50 ([5]; read-out: IC50, reduction of insulin secretion (GSIS), mouse islets): 1300 ± 2 nM
- effect on glucagon secretion [2]: biphasic glucagon secretory response
- Ki [6]: 164 ± 1.2 nM

Structure (SMILES): N[C@@H](Cc1ccc(O)c(O)c1)C(=O)O [L-DOPA, L-3,4-dihydroxyphenylalanine]
- fold increase in NE (αTC1–6 cells; [11]): 3 fold
- fold increase in α-cell DA secretion (αTC1–6 cells; [11]): 60 fold
- DA levels, fold more compared to NE (αTC1–6 cells; pre-incubation with 10 μM L-DOPA): 27 fold

Structure (SMILES): CN1CCN(C2=Nc3cc(Cl)ccc3Nc3ccccc32)CC1 [clozapine]
- increase in GSIS compared to vehicle ([1]; human islets): 19.8 ± 4.0%
- effect on glucose-stimulated insulin secretion ([1]; human islets): raised glucose-stimulated insulin secretion
- increase in glucagon secretion compared to vehicle [2]: 200.2 ± 21.7%
- effect on α-cell glucagon secretion [2]: significantly raised α-cell glucagon secretion

Structure (SMILES): COC1(C2=NCCN2)COc2ccccc2O1 (centres unmarked) [[^3H]RX821002]
- Bmax, saturation binding [7]: 5691 ± 103 fmol/mg protein
- Bmax, saturation binding ([7]; listed as [3H]RX821002): 5691±103 fmol/mg protein
- Kd ([7]; read-out: KD, saturation binding): 0.67 ± 0.05 nM
- Bmax, saturation binding [8]: 29.1 ± 4.3 fmol/mg protein
- Bmax, saturation binding [6]: 110 ± 3.3 fmol/mg protein
- Bmax, saturation binding ([6]; listed as [3H]RX821002): 110±0.02 fmol/mg protein
- Kd ([6]; listed as [3H]RX821002): 0.098 ± 0.02 nM
- Kd [6]: 0.1 ± 0.02 nM

Structure (SMILES): CC(C)NC[C@H](O)COc1cccc2ccccc12 [propranolol, S-(−)-propranolol]
- effect of propranolol on DA-induced glucagon secretion ([4]; mouse islets, propranolol 100 nM pre-treatment prior to DA): attenuates DA’s enhancement of glucagon secretion; also recorded: eliminated DA-induced increases in α-cell glucagon secretion

Structure (SMILES): O=C(CCCN1CCC(O)(c2ccc(Cl)cc2)CC1)c1ccc(F)cc1 [haloperidol]
- increase in GSIS compared to vehicle ([1]; human islets): 24.1 ± 4.6%
- effect on glucose-stimulated insulin secretion ([1]; human islets): raised glucose-stimulated insulin secretion
- increase in glucagon secretion compared to vehicle [2]: 67.1 ± 13.6%
- effect on α-cell glucagon secretion [2]: significantly raised α-cell glucagon secretion

Structure (SMILES): Clc1cccc(Cl)c1N=C1NCCN1 [clonidine]
- IC50 (parental INS-1E cells; [10]): 12.7 ± 1.3 nM
- GSIS inhibition in KO cells [9]: attenuated; also recorded: virtually eliminated
